Tests used:
[1] = solubility in solvents (observation); type: physicochemical; conditions: solvents as named in the value
[2] = storage stability (observation); type: physicochemical

Structure (SMILES): NC(=O)CN1CCN(CC(N)=O)CCN(CC(=O)NCc2ccccc2)CC1 [Chelator 2, 2,2′-(7-(2-(Benzylamino)-2-oxoethyl)-1,4,7-triazonane-1,4-diyl)diacetamide]
- solubility [1]: soluble in water, methanol, acetonitrile, and dimethyl sulfoxide
- storage stability ([2]; stored at 4 °C): stable when stored at 4 °C for several weeks

Structure (SMILES): O=C(CN1CCN(CCO)CCN(CCO)CC1)NCc1ccccc1 [Chelator 3, N-Benzyl-2-(4,7-bis(2-hydroxyethyl)-1,4,7,-triazonan-1-yl)acetamide]
- solubility [1]: soluble in water, methanol, acetonitrile, and dimethyl sulfoxide
- storage stability ([2]; stored at 4 °C): stable when stored at 4 °C for several weeks

Structure (SMILES): CC(=O)CN1CCN(CC(C)=O)CCN(CC(=O)NCc2ccccc2)CC1 [Chelator 4, N-Benzyl-2-(4,7-bis(2-oxopropyl)-1,4,7-triazonan-1-yl)acetamide]
- solubility [1]: soluble in dimethyl sulfoxide
- storage stability ([2]; stored at 4 °C): stable at 4 °C for several weeks

Structure (SMILES): O=C(O)CN1CCN(CC(=O)O)CCN(CC(=O)NCc2ccccc2)CC1 [Chelator 5, 2,2′-(7-(2-(Benzylamino)-2-oxoethyl)-1,4,7-triazonane-1,4-diyl)diacetic Acid]
- solubility [1]: soluble in water, methanol, acetonitrile, and dimethyl sulfoxide
- storage stability ([2]; room temperature): stable at room temperature for several months
